In the NIST ThermoML archive (doi:10.1021/je9003178):
± gives the expanded uncertainty stated by the source.

Assay: activity coefficient (dimensionless); of the first substance listed, at infinite dilution; xn = mol fraction of the nth substance listed
Conditions: Liquid, Chromatography, x1 = 0

| SMILES | activity coefficient (322.65 K) | activity coefficient (343.85 K) | activity coefficient (352.65 K) | activity coefficient (332.85 K) | activity coefficient (343.15 K) |
| --- | --- | --- | --- | --- | --- |
| CCCCCCC [heptane] + CCCCCC[N+](C)(C)C.O=S(=O)([N-]S(=O)(=O)C(F)(F)F)C(F)(F)F | 13.5 ± 0.62 | 12.3 ± 0.57 | 11.9 ± 0.55 | – | – |
| CCCCCCC [heptane] + CCn1cc[n+](C)c1.N#CN=C=[N-] | 183 ± 8.7 | – | – | 159 ± 7.5 | 139 ± 6.6 |
| C=CCCCC [hex-1-ene] + CCCCCC[N+](C)(C)C.O=S(=O)([N-]S(=O)(=O)C(F)(F)F)C(F)(F)F | 5.8 ± 0.27 | 5.55 ± 0.25 | 5.58 ± 0.26 | – | – |
| C=CCCCC [hex-1-ene] + CCn1cc[n+](C)c1.N#CN=C=[N-] | 43.6 ± 2 | – | – | 41.6 ± 1.9 | 39.9 ± 1.9 |
| CCCCCC [hexane] + CCCCCC[N+](C)(C)C.O=S(=O)([N-]S(=O)(=O)C(F)(F)F)C(F)(F)F | 9.81 ± 0.45 | 9.02 ± 0.41 | 8.85 ± 0.41 | – | – |
| CCCCCC [hexane] + CCn1cc[n+](C)c1.N#CN=C=[N-] | 111 ± 5.2 | – | – | 99.6 ± 4.7 | 89.5 ± 4.2 |
| C=O [methanal] + CCCCCC[N+](C)(C)C.O=S(=O)([N-]S(=O)(=O)C(F)(F)F)C(F)(F)F | 0.228 ± 0.037 | 0.272 ± 0.036 | 0.311 ± 0.035 | – | – |
| C=O [methanal] + CCn1cc[n+](C)c1.N#CN=C=[N-] | 0.32 ± 0.04 | – | – | 0.35 ± 0.04 | 0.37 ± 0.03 |
| CO [methanol] + CCCCCC[N+](C)(C)C.O=S(=O)([N-]S(=O)(=O)C(F)(F)F)C(F)(F)F | 1.16 ± 0.035 | 0.971 ± 0.025 | 0.956 ± 0.026 | – | – |
| CO [methanol] + CCn1cc[n+](C)c1.N#CN=C=[N-] | 0.44 ± 0.03 | – | – | 0.42 ± 0.03 | 0.41 ± 0.03 |
| CC1CCCCC1 [methylcyclohexane] + CCCCCC[N+](C)(C)C.O=S(=O)([N-]S(=O)(=O)C(F)(F)F)C(F)(F)F | 8.67 ± 0.4 | 7.78 ± 0.36 | 7.54 ± 0.35 | – | – |
| CC1CCCCC1 [methylcyclohexane] + CCn1cc[n+](C)c1.N#CN=C=[N-] | 73.9 ± 3.5 | – | – | 67.1 ± 3.1 | 61.3 ± 2.9 |
| CC1CCCC1 [methylcyclopentane] + CCCCCC[N+](C)(C)C.O=S(=O)([N-]S(=O)(=O)C(F)(F)F)C(F)(F)F | 6.61 ± 0.3 | 5.96 ± 0.27 | 5.83 ± 0.27 | – | – |
| CC1CCCC1 [methylcyclopentane] + CCn1cc[n+](C)c1.N#CN=C=[N-] | 50.3 ± 2.4 | – | – | 46.5 ± 2.2 | 43.2 ± 2 |
| C[N+](=O)[O-] [nitromethane] + CCCCCC[N+](C)(C)C.O=S(=O)([N-]S(=O)(=O)C(F)(F)F)C(F)(F)F | 0.975 ± 0.025 | 0.567 ± 0.031 | 0.568 ± 0.031 | – | – |
| C[N+](=O)[O-] [nitromethane] + CCn1cc[n+](C)c1.N#CN=C=[N-] | 0.66 ± 0.03 | – | – | 0.64 ± 0.03 | 0.63 ± 0.03 |
| CCCCCCCCC [nonane] + CCCCCC[N+](C)(C)C.O=S(=O)([N-]S(=O)(=O)C(F)(F)F)C(F)(F)F | 28.9 ± 1.3 | 24.6 ± 1.1 | 23.4 ± 1.1 | – | – |
| CCCCCCCCC [nonane] + CCn1cc[n+](C)c1.N#CN=C=[N-] | 498 ± 24 | – | – | 446 ± 21 | 401 ± 19 |
| CCCCCCCC [octane] + CCCCCC[N+](C)(C)C.O=S(=O)([N-]S(=O)(=O)C(F)(F)F)C(F)(F)F | 19 ± 0.88 | 16.8 ± 0.78 | 16.2 ± 0.75 | – | – |
| CCCCCCCC [octane] + CCn1cc[n+](C)c1.N#CN=C=[N-] | 290 ± 14 | – | – | 260 ± 12 | 234 ± 11 |
| CCCC(C)=O [pentan-2-one] + CCCCCC[N+](C)(C)C.O=S(=O)([N-]S(=O)(=O)C(F)(F)F)C(F)(F)F | 0.612 ± 0.031 | 0.638 ± 0.03 | 0.663 ± 0.03 | – | – |
| CCCC(C)=O [pentan-2-one] + CCn1cc[n+](C)c1.N#CN=C=[N-] | 2.92 ± 0.13 | – | – | 2.93 ± 0.13 | 2.9 ± 0.13 |
| CCC(=O)CC [pentan-3-one] + CCCCCC[N+](C)(C)C.O=S(=O)([N-]S(=O)(=O)C(F)(F)F)C(F)(F)F | 0.563 ± 0.032 | 0.601 ± 0.031 | 0.637 ± 0.03 | – | – |
| CCC(=O)CC [pentan-3-one] + CCn1cc[n+](C)c1.N#CN=C=[N-] | 2.81 ± 0.13 | – | – | 2.84 ± 0.13 | 2.84 ± 0.13 |
